In patent US12077503B2, “Substituted cyclic amides and their use as herbicides” (FMC CORPORATION, priority 2015, dated 2024):
Where two headings read alike, the source gives them in different places.

How the values were obtained:
Type in all cases: in vivo
[1] = tested on: ducksalad (Heteranthera limosa); experiment: Test B flooded paddy test; settings: Heteranthera limosa, Flood, 250 g ai/ha; scale of 0 to 100 where 0 is no effect and 100 is complete control; read-out: Ducksalad plant response rating
Summary of the method: (§1)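 Response scored visually against untreated controls, 0 = no effect and 100 = complete control, 13–15 d after treatment in the greenhouse. Compounds added to paddy water held 3 cm above soil surface. Treatment given at 2-leaf stage.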

rice (Oryra sativa) = experiment: Test B flooded paddy test; settings: Oryza sativa, Flood, 250 g ai/ha; scale of 0 to 100 where 0 is no effect and 100 is complete control; read-out: Rice plant response rating
Summary of the method: as §1

[2] = tested on: barnyardgrass (Echinochloa crus-galli); experiment: Test B flooded paddy test; settings: Echinochloa crus-galli, Flood, 250 g ai/ha; scale of 0 to 100 where 0 is no effect and 100 is complete control; read-out: Barnyardgrass plant response rating
Summary of the method: as §1

[3] = tested on: sedge, umbrella (small-flower umbrella sedge, Cyperus difformis); experiment: Test B flooded paddy test; settings: Cyperus difformis, Flood, 250 g ai/ha; scale of 0 to 100 where 0 is no effect and 100 is complete control; read-out: Sedge, Umbrella plant response rating
Summary of the method: as §1

Kochia (Kochia scoparia) = experiment: Test A preemergence; settings: Bassia scoparia, pre-emergence, 240 h; for pest or weed control at 125 g/ha: 125 g ai/ha, visual rating after approx. 10 d, 0 to 100 scale where 0 is no effect and 100 is complete control; for pest or weed control at 500 g/ha: 500 g ai/ha
Summary of the method: (§2)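 Visual injury scores from 0, no effect, to 100, complete control, were assigned versus untreated controls roughly 10 d after treatment in the greenhouse. Test chemicals, formulated with surfactant in a non-phytotoxic solvent, were applied to planted seeds as a preemergence soil spray or postemergence to one- to two-leaf plants 2 to 10 cm tall, in loam–sand soil.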

[4] = tested on: ragweed (common ragweed, Ambrosia elatior); experiment: Test A preemergence; settings: Ambrosia artemisiifolia, pre-emergence, 240 h; for pest or weed control at 125 g/ha: 125 g ai/ha, visual rating after approx. 10 d, 0 to 100 scale where 0 is no effect and 100 is complete control; for pest or weed control at 500 g/ha: 500 g ai/ha
Summary of the method: as §2

[5] = tested on: pigweed (Amaranthus retroflexus); experiment: Test A preemergence; settings: Amaranthus retroflexus, pre-emergence, 240 h; for pest or weed control at 125 g/ha: 125 g ai/ha, visual rating after approx. 10 d, 0 to 100 scale where 0 is no effect and 100 is complete control; for pest or weed control at 500 g/ha: 500 g ai/ha
[6] = tested on: giant foxtail (Setaria faberii); experiment: Test A preemergence; settings: Setaria faberi, pre-emergence, 240 h; for pest or weed control at 125 g/ha: 125 g ai/ha, visual rating after approx. 10 d, 0 to 100 scale where 0 is no effect and 100 is complete control; for pest or weed control at 500 g/ha: 500 g ai/ha
Summary of the method: as §2

[7] = tested on: barnyardgrass (Echinochloa crus-galli); experiment: Test A preemergence; settings: Echinochloa crus-galli, pre-emergence, 240 h; for pest or weed control at 125 g/ha: 125 g ai/ha, visual rating after approx. 10 d, 0 to 100 scale where 0 is no effect and 100 is complete control; for pest or weed control at 500 g/ha: 500 g ai/ha
Summary of the method: as §2

[8] = tested on: ryegrass, Italian (Italian ryegrass, Lolium multiflorum); experiment: Test A preemergence; settings: Lolium multiflorum, pre-emergence, 240 h; for pest or weed control at 125 g/ha: 125 g ai/ha, preemergence, visual rating after approx. 10 d, 0 to 100 scale where 0 is no effect and 100 is complete control, read-out: Plant response rating, Ryegrass, Italian
Summary of the method: as §2

[9] = tested on: wheat (Triticum aestivum); experiment: Test A postemergence; settings: Triticum aestivum, post-emergence, 240 h, 125 g ai/ha, postemergence; visual injury after approximately 10 d; 0 to 100 scale (0 no effect, 100 complete control); read-out: Plant response rating, Wheat
Summary of the method: as §2

[10] = tested on: pigweed (Amaranthus retroflexus); experiment: Test A postemergence; settings: Amaranthus retroflexus, post-emergence, 240 h, 125 g ai/ha, postemergence; visual injury after approximately 10 d; 0 to 100 scale (0 no effect, 100 complete control); read-out: Plant response rating, Pigweed
Summary of the method: as §2

[11] = tested on: blackgrass (Alopecurus myosuroides); experiment: Test A postemergence; settings: Alopecurus myosuroides, post-emergence, 240 h, 125 g ai/ha, postemergence; visual injury after approximately 10 d; 0 to 100 scale (0 no effect, 100 complete control); read-out: Plant response rating, Blackgrass
Summary of the method: as §2

[12] = tested on: giant foxtail (Setaria faberii); experiment: Test A postemergence; settings: Setaria faberi, post-emergence, 240 h, 125 g ai/ha, postemergence; visual injury after approximately 10 d; 0 to 100 scale (0 no effect, 100 complete control); read-out: Plant response rating, Foxtail, Giant
Summary of the method: as §2

[13] = tested on: ryegrass, Italian (Italian ryegrass, Lolium multiflorum); experiment: Test A postemergence; settings: Lolium multiflorum, post-emergence, 240 h, 125 g ai/ha, postemergence; visual injury after approximately 10 d; 0 to 100 scale (0 no effect, 100 complete control); read-out: Plant response rating, Ryegrass, Italian
Summary of the method: as §2

[14] = preemergence, read-out: Plant response rating, Kochia
[15] = preemergence, read-out: Plant response rating, Ragweed
[16] = preemergence, read-out: Plant response rating, Pigweed
[17] = preemergence, read-out: Plant response rating, Foxtail, Giant
[18] = preemergence, read-out: Plant response rating, Barnyardgrass

SMILES	pest or weed control at 250 g/ha [1] [%]	pest or weed control at 250 g/ha (rice (Oryra sativa)) [%]	pest or weed control at 250 g/ha [2] [%]	pest or weed control at 250 g/ha [3] [%]	pest or weed control at 125 g/ha (Kochia (Kochia scoparia); [14]) [%]	pest or weed control at 125 g/ha [4, 15] [%]	pest or weed control at 125 g/ha [5, 16] [%]	pest or weed control at 125 g/ha [6, 17] [%]	pest or weed control at 125 g/ha [7, 18] [%]	pest or weed control at 125 g/ha [8] [%]	plant injury at 125 g/ha [9] [%]	pest or weed control at 125 g/ha [10] [%]	pest or weed control at 125 g/ha [11] [%]	pest or weed control at 125 g/ha [12] [%]	pest or weed control at 125 g/ha [13] [%]	also measured
O=C1NC[C@H](c2ccc(OC(F)F)cc2)[C@H]1C(=O)Nc1ccccc1F [Compound 778]	100	0	0	0	80	40	30	90	70	0	0	10	10	70	20	pest or weed control at 500 g/ha (Kochia (Kochia scoparia); Preemergence, visual injury vs untreated controls after approximately 10 d, read-out: Kochia plant response rating (0 to 100 scale where 0 is no effect and 100 is complete control)): 80%; pest or weed control at 500 g/ha ([4]; Preemergence, visual injury vs untreated controls after approximately 10 d, read-out: Ragweed plant response rating (0 to 100 scale where 0 is no effect and 100 is complete control)): 60%; pest or weed control at 500 g/ha ([5]; Preemergence, visual injury vs untreated controls after approximately 10 d, read-out: Pigweed plant response rating (0 to 100 scale where 0 is no effect and 100 is complete control)): 80%; pest or weed control at 500 g/ha ([6]; Preemergence, visual injury vs untreated controls after approximately 10 d, read-out: Foxtail, Giant plant response rating (0 to 100 scale where 0 is no effect and 100 is complete control)): 90%; pest or weed control at 500 g/ha ([7]; Preemergence, visual injury vs untreated controls after approximately 10 d, read-out: Barnyardgrass plant response rating (0 to 100 scale where 0 is no effect and 100 is complete control)): 90%; pest or weed control at 500 g/ha ([8]; 500 g ai/ha, Preemergence, visual injury vs untreated controls after approximately 10 d, read-out: Ryegrass, Italian plant response rating (0 to 100 scale where 0 is no effect and 100 is complete control)): 20%
CCc1ccc([C@H]2CNC(=S)[C@@H]2C(=O)Nc2ccccc2SC)cc1 [Compound 763]	60	0	0	0	30	0	0	0	80	0	0	0	0	0	0	pest or weed control at 500 g/ha (Kochia (Kochia scoparia); preemergence, 0 to 100 scale, 0 = no effect, 100 = complete control, read-out: Plant response rating, Kochia): 30%; pest or weed control at 500 g/ha ([4]; preemergence, 0 to 100 scale, 0 = no effect, 100 = complete control, read-out: Plant response rating, Ragweed): 0%; pest or weed control at 500 g/ha ([5]; preemergence, 0 to 100 scale, 0 = no effect, 100 = complete control, read-out: Plant response rating, Pigweed): 30%; pest or weed control at 500 g/ha ([6]; preemergence, 0 to 100 scale, 0 = no effect, 100 = complete control, read-out: Plant response rating, Foxtail, Giant): 50%; pest or weed control at 500 g/ha ([7]; preemergence, 0 to 100 scale, 0 = no effect, 100 = complete control, read-out: Plant response rating, Barnyardgrass): 80%
